In patent publication US9913468B2, “Microbicidal composition” (Dow Global Technologies LLC, priority 2013, dated 2018):
Like-named read-outs stand apart in the source and are kept apart here. Values belong to the compound of their own block, whether it stands above or below them.

What was measured:
Type in all cases: cell-based
[1] = test system: Staphylococcus aureus ATCC #6538; assay: MIC / synergy index test in 96 well microtiter plates, Gram positive bacteria; conditions: S. aureus, 1/10 TSB; for MIC: Staphylococcus aureus, ATCC6538, 24 h, DTEA alone, read-out: MIC alone, CB (compound B)
Experimental: (§1) Surfactants and biocides were evaluated for synergy by determining the synergy index (S.I.) of the combination. Synergy index was calculated based on minimum inhibitory concentrations (MIC) of two antimicrobial compounds (A and B) alone and in combinations. The tests organisms were Gram negative bacteria (Pseudomonas aeruginosa ATCC #15442), Gram positive bacteria (Staphylococcus aureus ATCC #6538), yeast (Candida albicans ATCC#10203) and mold (Aspergillus niger ATCC#16404). Contact time for the bacteria was 24 and 48 hours, yeast was 48 and 72 hrs, and 3 and 7 days for mold. The test was carried out in 96 well microtiter plates. R^1O(CH2CH(CH3)O)5(CH2CH2O)9H, where R^1 is 2-ethylhexyl Surf. A R^2O(CH2CH(CH3)O)3(CH2CH2O)5H Surf. D R^2O(CH2CH(CH3)O)3(CH2CH2O)7H Surf. E In Surf. D and Surf. E, R^2 is a mixture of C8-C14 linear alkyl groups (70% C8-C10 linear alkyl and 30% C12-C14 linear alkyl) Inoculums Used
(§2) The pH of the Triptic soy broth was 7.3 and the Potato dextrose broth was 5.1.
(§3) SI is calculated as follows: Ca/CA+Cb/CB=Synergy Index (“SI”) Wherein: • CA=concentration of compound A in ppm, acting alone, which produced an end point (MIC of Compound A). • Ca=concentration of compound A in ppm, in the mixture, which produced an end point. • CB=concentration of compound B in ppm, acting alone, which produced an end point (MIC of Compound B). • Cb=concentration of compound B in ppm, in the mixture, which produced an end point. When the sum of Ca/CA and Cb/CB is greater than one, antagonism is indicated.

[2] = test system: Pseudomonas aeruginosa ATCC #15442; assay: MIC / synergy index test in 96 well microtiter plates, Gram negative bacteria; conditions: ATCC15442, 24 h, read-out: MIC alone, CB (compound B)
Experimental: as §1, with “Used […]” for “Used”
(§4) SI is calculated as follows: Ca/CA+Cb/CB=Synergy Index (“SI”) Wherein: • CA=concentration of compound A in ppm, acting alone, which produced an end point (MIC of Compound A). • Ca=concentration of compound A in ppm, in the mixture, which produced an end point. • CB=concentration of compound B in ppm, acting alone, which produced an end point (MIC of Compound B). • Cb=concentration of compound B in ppm, in the mixture, which produced an end point. […]

[3] = test system: Aspergillus niger ATCC#16404; assay: MIC / synergy index test in 96 well microtiter plates, mold; conditions: 3rd day, PDB; for MIC: Aspergillus niger, ATCC16404, DTEA alone, A. niger, read-out: MIC alone, CB (compound B)
Experimental: as §1, §2, §3

[4] = test system: Candida albicans ATCC#10203; assay: MIC / synergy index test in 96 well microtiter plates, yeast; conditions: C. albicans, PDB; for MIC: Candida albicans, ATCC10203, 48 h, DTEA alone, read-out: MIC alone, CB (compound B)
Experimental: as §1, §2, §3

[5] = test system: any organism tested (Pseudomonas aeruginosa, Staphylococcus aureus, Candida albicans, Aspergillus niger); assay: Synergy of other biocides paired with the surfactants, any organism tested; conditions: listed under Surf. D; except for one data point
Experimental: as §1, §4

[6] = inoculum 1.156E+06, Surf. A series

MIC [1, 6]: 4 µg/mL
MIC ([1]; inoculum 1.156E+06, Surf. E series): 5 µg/mL
MIC ([1]; inoculum 1.8E+05, Surf. D series): 5 µg/mL
MIC [2]: 20 µg/mL
MIC [3, 6]: 200 µg/mL
MIC ([3]; inoculum 1.156E+06, Surf. D series): 100 µg/mL
MIC ([3]; inoculum 1.56E+06, Surf. E series): 200 µg/mL
MIC [4, 6]: 50 µg/mL
MIC ([4]; inoculum 1.8E+06, Surf. E series): 50 µg/mL
MIC ([4]; inoculum 5.72E+05, Surf. D series): 40 µg/mL
Compound: CCCCCCCCCCSCCN [DTEA, 2-decylthioethylamine]

Compound: CCCCNC(=O)OCC#CI [IPBC]
Ratio of surfactant to biocide where synergy was observed [5]: synergistic only at 1:0.05 or worse

Compound: Cn1sc2ccccc2c1=O [MBIT]
Ratio of surfactant to biocide where synergy was observed [5]: synergistic only at 1:0.05 or worse

Compound: R^1O(CH2CH(CH3)O)5(CH2CH2O)9H, where R^1 is 2-ethylhexyl [Surf. A]
MIC alone, CA (compound A) ([1]; Surf. A alone, 24 hrs, inoculum 1.156E+06): >20000 ppm
MIC alone, CA (compound A) ([3]; Surf. A alone, inoculum 1.156E+06): >20000 ppm
MIC alone, CA (compound A) ([4]; Surf. A alone, 48 hrs, inoculum 1.156E+06): >20000 ppm
